Experimental data from ChEMBL document CHEMBL5385961, “In vitro and in vivo evaluation of novel chromeno[2,3-d]pyrimidinones as therapeutic agents for triple negative breast cancer” (RSC Med Chem, 2024).
Calls of active or inactive are those of the source. No cut-off for these calls is given here.

Columns and labels:
[1] = test system: Hs-578T; experiment: Cytotoxicity against human Hs-578T cells assessed as inhibition of cell growth incubated for 72 hrs by SRB assay; type: functional, cell-based
[2] = test system: Hs-578T; experiment: Induction of apoptosis in human Hs-578T cells assessed as increase in caspase-8 protein expression at IC50 measured after 24 hrs by Western blot analysis; type: functional, cell-based
[3] = test system: Hs-578T; experiment: Induction of apoptosis in human Hs-578T cells assessed as reduction in viable cells at IC50 measured after 24 to 48 hrs by Annexin V-FITC/PI staining based flow cytometry analysis; type: functional, cell-based; conditions: time 24-48 hrs
[4] = test system: Hs-578T; experiment: Induction of apoptosis in human Hs-578T cells assessed as increase in early apoptotic cells at IC50 measured after 48 hrs by Annexin V-FITC/PI staining based flow cytometry analysis relative to control; type: functional
[5] = test system: Hs-578T; experiment: Antitumor activity against human Hs-578T cells implanted in chick eggs assessed as tumor growth regression at 2 times IC50 administered starting from day 13 and measured 17 days post embryo development by stereomicroscopic analysis; type: functional, cell-based; conditions: time 5.0 day
[6] = Toxicity in wild type C57BL/6J mouse assessed as effect on body temperature at 10 to 50 mg/kg, ip administered daily for 7 days; type: organism-based; conditions: in vivo, 168 h, dose 10-50 mg/kg, time 7 day
[7] = Toxicity in wild type C57BL/6J mouse assessed as mean food intake at 10 mg/kg, ip administered daily for 7 days; type: organism-based; conditions: in vivo, 168 h, time 7 day
[8] = Toxicity in wild type C57BL/6J mouse assessed as effect on vertical activity at 10 to 50 mg/kg, ip administered daily for 7 days and measured daily; type: organism-based; conditions: in vivo, 168 h, dose 10-50 mg/kg, time 7 day
[9] = Toxicity in wild type C57BL/6J mouse assessed as transfer to reaction at 10 to 50 mg/kg, ip administered daily for 7 days and measured daily; type: organism-based; conditions: in vivo, 168 h, dose 10-50 mg/kg, time 7 day
[10] = Toxicity in wild type C57BL/6J mouse assessed as effect on grooming at 10 to 50 mg/kg, ip administered daily for 7 days and measured daily; type: organism-based; conditions: in vivo, 168 h, dose 10-50 mg/kg, time 7 day
[11] = Toxicity in wild type C57BL/6J mouse assessed as tremor at 10 to 50 mg/kg, ip administered daily for 7 days and measured daily; type: organism-based; conditions: in vivo, 168 h, dose 10-50 mg/kg, time 7 day
[12] = Toxicity in wild type C57BL/6J mouse assessed as effect on body curvature at 10 to 50 mg/kg, ip administered daily for 7 days and measured daily; type: organism-based; conditions: in vivo, 168 h, dose 10-50 mg/kg, time 7 day
[13] = test system: Hs-578T; experiment: Cytotoxicity against human Hs-578T cells assessed as cell viability at 10 uM incubated for 72 hrs by SRB assay relative to control; type: functional; conditions: read-out: Activity
[14] = test system: Hs-578T; experiment: Cytotoxicity against human Hs-578T cells assessed as cell viability at 30 uM incubated for 72 hrs by SRB assay relative to control; type: functional; conditions: read-out: Activity
[15] = test system: MDA-MB-231; experiment: Cytotoxicity against human MDA-MB-231 cells assessed as cell viability at 10 uM incubated for 72 hrs by SRB assay relative to control; type: functional; conditions: read-out: Activity

With Brc1ccc2c(c1)-c1cc(-c3ccccc3)nc3c1C(N=CN3c1ccccc1)O2 (stereo not given) the IC50 [1] was 8.63 µM, the Activity [2] was “Active” and the Activity [3] was “Active”. For the same molecule, the Activity [4] was ~50%, the Activity [5] was “Active” and the Activity [6] was “Non-Toxic”. For the same molecule, the Activity [7] was ~ 3 g/day, the Activity [8] was “Non-Toxic” and the Activity [9] was “Non-Toxic”. The Activity [10] was “Non-Toxic”, the Activity [11] was “Non-Toxic” and the Activity [12] was “Non-Toxic”. The viability at 10 µM [13] was 50.4%, the viability at 30 µM [14] was 32.6% and the viability at 10 µM [15] was 49.9%.
